Broadly, the IC50 is the concentration at which inhibition is half-maximal.

Our source for the IC50 values is patent publication US11578087B2, “Oxaborole esters and uses thereof” (priority 2016, dated 2023).

The first experiment concerns T. cruzi amastigote (Td Tomato-modified) in Vero cells. Put plainly: In vitro IC50 measurement of T. cruzi amastigote killing using Td Tomato-modified T. cruzi. The class given is cell-based. The conditions noted are these: Trypanosoma cruzi, 72 h, fluorescence, read-out: IC50: I Org. amastigote Growth T. cruzi 3 d. Here is the method:
Example 254. In Vitro IC50 Measurement of T. cruzi Amastigote Killing Using Td Tomato-Modified T. cruzi
The T. cruzi parasites used in this assay were genetically modified to express Td Tomato fluorescent protein. Vero cells (African green monkey kidney epithelial cells) were harvested from continuous cultures using trypsin and added to the inner 60 wells of 96-well Greiner Bio One plates (plate catalog #655090) at 200 ul/well of […]. Cells were allowed to adhere for 1 h before infection with T. cruzi. T. cruzi for infection were harvested from previously-infected Vero cells, washed, pelleted and resuspended at 5×10^6/mL. 50 uL of parasites were added to each well containing Vero cells. Compounds were prepared from 5 mM stock concentrations in DMSO to final concentrations in wells ranging from 5 uM to 5 nM. Wells were provided for negative controls, lacking compounds. Plates were placed into a 37° C. incubator for 20 min, then a “Day 0” reading was taken on a Synergy H4 plate reader to record initial fluorescence levels, at 544 (excitation) and 612 nm (emission). 96-well plates were placed in Tupperware containers with wet paper towels and incubated at 37° C. incubator for 72 h. After 72 h plates were reread (Day 3 reading) and data analyzed using Excel and/or Graphpad software. Day 0 fluorescence was subtracted from Day 3 to remove input parasite fluorescence. Growth curves are generated and 50% and 90% inhibitory concentrations are determined by nonlinear regression analysis.
For `Cc1c(C(=O)N[C@H](C(=O)OCC2(C)CCOC2)C(C)C)ccc2c1B(O)OC2` (stereo partly drawn) [Example 6-233, (3-methyltetrahydrofuran-3-yl)methyl (1-hydroxy-7-methyl-1,3-dihydrobenzo[c][1,2]oxaborole-6-carbonyl)-L-valinate], the IC50 is at most 0.02 µM.

For `COc1c(C(=O)N[C@H](C(=O)OCc2ccccc2)C(C)C)ccc2c1B(O)OC2` [Example 6-194, Benzyl (1-hydroxy-7-methoxy-1,3-dihydrobenzo[c][1,2]oxaborole-6-carbonyl)-L-valinate], the IC50 was 0.021 to 0.999 µM.

Turning to `CC(C)[C@H](NC(=O)c1ccc2c(c1C(F)F)B(O)OC2)C(=O)OCc1ccccc1` [Example 6-079, Benzyl (7-(difluoromethyl)-1-hydroxy-1,3-dihydrobenzo[c][1,2]oxaborole-6-carbonyl)-L-valinate], the IC50 lay in the range of 0.021 to 0.999 µM.

Regarding `Cc1c(C(=O)N[C@H](C(=O)OC[C@H]2CCOC2)C(C)C)ccc2c1B(O)OC2` [Example 6-235, ((S)-tetrahydrofuran-3-yl)methyl (1-hydroxy-7-methyl-1,3-dihydrobenzo[c][1,2]oxaborole-6-carbonyl)-L-valinate], the IC50 is at most 0.02 µM.

For `Cc1c(C(=O)N[C@H](C(=O)OCc2ccc3ncccc3c2)C(C)C)ccc2c1B(O)OC2` [Example 6-127, Quinolin-6-ylmethyl (1-hydroxy-7-methyl-1,3-dihydrobenzo[c][1,2]oxaborole-6-carbonyl)-L-valinate], the IC50 lay within 0.021 to 0.999 µM.

As to `Cc1c(C(=O)N[C@H](C(=O)OCC2COCCO2)C(C)C)ccc2c1B(O)OC2` (stereo partly drawn) [Example 6-227, (1,4-dioxan-2-yl)methyl (1-hydroxy-7-methyl-1,3-dihydrobenzo[c][1,2]oxaborole-6-carbonyl)-L-valinate], the IC50 is at most 0.02 µM.

As to `Cc1c(C(=O)N[C@H](C(=O)OCCN2CC3CC(C2)O3)C(C)C)ccc2c1B(O)OC2` [Example 6-231, 2-(6-oxa-3-azabicyclo[3.1.1]heptan-3-yl)ethyl (1-hydroxy-7-methyl-1,3-dihydrobenzo[c][1,2]oxaborole-6-carbonyl)-L-valinate], the IC50 is 0.021 to 0.999 µM.

For the compound `Cc1c(C(=O)N[C@H](C(=O)O[C@@H](C)c2ccccc2)C(C)C)ccc2c1B(O)OC2` [Example 6-199, (S)-1-phenylethyl (1-hydroxy-7-methyl-1,3-dihydrobenzo[c][1,2]oxaborole-6-carbonyl)-L-valinate], the IC50 was 0.021 to 0.999 µM.

`Cc1cc2c(cc1C(=O)N[C@H](C(=O)OCc1ccc(F)cc1)C(C)C)B(O)OC2` [Example 6-129, 4-Fluorobenzyl (1-hydroxy-5-methyl-1,3-dihydrobenzo[c][1,2]oxaborole-6-carbonyl)-L-valinate]: the IC50 was 0.021 to 0.999 µM.

As for `Cc1c(C(=O)N[C@H](C(=O)OCc2cccc(N3CCNCC3)n2)C(C)C)ccc2c1B(O)OC2` [Example 6-213, (6-(piperazin-1-yl)pyridin-2-yl)methyl (1-hydroxy-7-methyl-1,3-dihydrobenzo[c][1,2]oxaborole-6-carbonyl)-L-valinate], the IC50 was at least 1 µM.

Regarding `Cc1c(C(=O)N[C@H](C(=O)OCc2ccccn2)C(C)C)ccc2c1B(O)OC2` [Example 6-191, Pyridin-2-ylmethyl (1-hydroxy-7-methyl-1,3-dihydrobenzo[c][1,2]oxaborole-6-carbonyl)-L-valinate], the IC50 is at most 0.02 µM.

The test system of a further experiment is IL3000 T. congolense (drug sensitive) strain. Put plainly: In vitro Alamar Blue 72 h drug sensitivity assay for T. congolense. The class given is cell-based, Trypanosoma congolense. The conditions noted are these: Trypanosoma congolense, 72 h, bloodstream form, 69 h + 3 h Resazurin, 34° C., read-out: IC50: I Org. Growth T. congolense 3 d. Here is the method:
Example 252. In Vitro Alamar Blue 72 h Drug Sensitivity Assay for T. congolense
Compounds were tested in vitro for chemotherapeutic potency against the IL3000 T. congolense (drug sensitive) strain, using the Alamar Blue assay with several modifications. Test compounds were prepared as 10 mg/mL DMSO stocks for each assay run. Compounds were assayed in at least three separate, independent test runs and an 11-point dilution curve was used to determine the IC50 values. Bloodstream form trypanosomes were supported in HMI media containing 20% bovine serum and were incubated with test compounds for 69 h at 34° C. in a humidified atmosphere containing 5% CO2. Thereafter, 10 μL of Resazurin dye (12.5 mg in 100 mL of phosphate buffered saline, Sigma-Aldrich, Buchs, Switzerland) were added for an additional 3 h. Plates were then read using a fluorescent plate reader (Spectramax, Gemini XS, Bucher Biotec, Basel, Switzerland) using an excitation wavelength of 536 nm and an emission wavelength of 588 nm. Data points were averaged to generate sigmoidal dose-response curves and IC50 values were determined using Softmax Pro 5.2 software.
With `O=C(OCc1ccccc1)[C@@H]1CCCN1C(=O)c1ccc2c(c1)B(O)OC2` [Example 6-012, Benzyl (1-hydroxy-1,3-dihydrobenzo[c][1,2]oxaborole-6-carbonyl)-L-prolinate], the IC50 is 0.01 to 5 µM.

`C[C@@H](NC(=O)c1ccc2c(c1)B(O)OC2)C(=O)OCc1ccccc1` [Example 6-175, Benzyl (1-hydroxy-1,3-dihydrobenzo[c][1,2]oxaborole-6-carbonyl)-D-alaninate]: the IC50 is 0.01 to 5 µM.

On to `COC(=O)[C@H](Cc1c[nH]c2ccccc12)NC(=O)c1ccc2c(c1)B(O)OC2` [Example 6-183, Methyl (1-hydroxy-1,3-dihydrobenzo[c][1,2]oxaborole-6-carbonyl)-L-tryptophanate], for which the concentration for half-maximal inhibition (IC50) lay in the range of 0.01 to 5 µM.

Turning to `COC(=O)[C@H](CCCc1ccccc1)NC(=O)c1ccc2c(c1)B(O)OC2` [Example 6-028, Methyl (S)-2-(1-hydroxy-1,3-dihydrobenzo[c][1,2]oxaborole-6-carboxamido)-5-phenylpentanoate], the half-inhibitory concentration (IC50) is 0.01 to 5 µM.

Take `O=C(CNC(=O)c1ccc2c(c1)B(O)OC2)OCc1ccccc1` [Example 6-004, Benzyl (1-hydroxy-1,3-dihydrobenzo[c][1,2]oxaborole-6-carbonyl)glycinate]: the concentration for half-maximal inhibition (IC50) was in the range of 0.01 to 5 µM.

Consider `COC(=O)[C@@H](CCCc1ccccc1)NC(=O)c1ccc2c(c1)B(O)OC2` [Example 6-029, Methyl (R)-2-(1-hydroxy-1,3-dihydrobenzo[c][1,2]oxaborole-6-carboxamido)-5-phenylpentanoate], for which the IC50 lay within 0.01 to 5 µM.

On to `COC(=O)[C@H](CC1CC1)NC(=O)c1ccc2c(c1)B(O)OC2` [Example 6-184, Methyl (S)-3-cyclopropyl-2-(1-hydroxy-1,3-dihydrobenzo[c][1,2]oxaborole-6-carboxamido)propanoate], for which the IC50 was in the range of 0.01 to 5 µM.

Consider `CC(C)(NC(=O)c1ccc2c(c1)B(O)OC2)C(=O)OCc1ccccc1` [Example 6-013, Benzyl 2-(1-hydroxy-1,3-dihydrobenzo[c][1,2]oxaborole-6-carboxamido)-2-methylpropanoate], for which the concentration for half-maximal inhibition (IC50) lay in the range of 0.01 to 5 µM.

For the compound `Cc1c(C(=O)N[C@H](C(=O)OC2COCCOC2)C(C)C)ccc2c1B(O)OC2` [Example 6-162, 1,4-dioxepan-6-yl (1-hydroxy-7-methyl-1,3-dihydrobenzo[c][1,2]oxaborole-6-carbonyl)-L-valinate], the half-inhibitory concentration (IC50) was 0.00051 to 0.00999 µM.

As to `CC(C)[C@H](NC(=O)c1ccc2c(c1F)B(O)OC2)C(=O)OCc1ccc(F)cc1F` [Example 6-037, 2,4-Difluorobenzyl (7-fluoro-1-hydroxy-1,3-dihydrobenzo[c][1,2]oxaborole-6-carbonyl)-L-valinate], the IC50 is 0.01 to 5 µM.

On to `NC(=O)CC[C@H](NC(=O)c1ccc2c(c1)B(O)OC2)C(=O)OCc1ccccc1` [Example 6-011, Benzyl (1-hydroxy-1,3-dihydrobenzo[c][1,2]oxaborole-6-carbonyl)-L-glutaminate], for which the IC50 fell in the range of 0.01 to 5 µM.

Turning to `Cc1cccc(C)c1COC(=O)[C@H](C)NC(=O)c1ccc2c(c1)B(O)OC2` [Example 6-014, 2,6-Dimethylbenzyl (1-hydroxy-1,3-dihydrobenzo[c][1,2]oxaborole-6-carbonyl)-L-alaninate], the IC50 was 0.01 to 5 µM.

`Cc1cccc(C)c1OC(=O)[C@H](C)NC(=O)c1ccc2c(c1)B(O)OC2` [Example 6-001, 2,6-Dimethylphenyl (1-hydroxy-1,3-dihydrobenzo[c][1,2]oxaborole-6-carbonyl)-L-alaninate]: the IC50 lay in the range of 0.01 to 5 µM.

With `COC(=O)[C@@H](NC(=O)c1ccc2c(c1)B(O)OC2)C(C)C` [Example 6-179, Methyl (1-hydroxy-1,3-dihydrobenzo[c][1,2]oxaborole-6-carbonyl)-L-valinate], the IC50 fell in the range of 0.01 to 5 µM.

Regarding `Cc1c(C(=O)N[C@H](C(=O)OCc2ccc(OCCN3CCCC3)cc2)C(C)C)ccc2c1B(O)OC2` [Example 6-163, 4-(2-(Pyrrolidin-1-yl)ethoxy)benzyl (1-hydroxy-7-methyl-1,3-dihydrobenzo[c][1,2]oxaborole-6-carbonyl)-L-valinate], the IC50 was below 0.0005 µM.

Turning to `C[C@H](NC(=O)c1ccc2c(c1)B(O)OC2)C(=O)OC(C)(C)c1ccccc1` [Example 6-015, 2-Phenylpropan-2-yl (1-hydroxy-1,3-dihydrobenzo[c][1,2]oxaborole-6-carbonyl)-L-alaninate], the IC50 is 0.01 to 5 µM.

On to `CC(C)[C@H](NC(=O)c1ccc2c(c1)B(O)OC2(C)C)C(=O)OCc1ccc(F)cc1F` [Example 6-034, 2,4-Difluorobenzyl (1-hydroxy-3,3-dimethyl-1,3-dihydrobenzo[c][1,2]oxaborole-6-carbonyl)-L-valinate], for which the IC50 lay in the range of 0.01 to 5 µM.

Staying with this experiment, now noted: bloodstream form, 69 h + 3 h Resazurin, 34° C., read-out: IC50: I Org. Growth T. congolense 3 d.
As for `COC(=O)[C@H](Cc1ccccc1)NC(=O)c1ccc2c(c1)B(O)OC2` [Example 6-181, Methyl (1-hydroxy-1,3-dihydrobenzo[c][1,2]oxaborole-6-carbonyl)-L-phenylalaninate], the IC50 was 0.01 to 5 µM.
